Like-named read-outs stand apart in the source and are kept apart here.

Data on five molecules can be found in patent US20180153203A1, “(5R)-(ß-D-GLUCOPYRANOSYLOXY)-1,5-DIHYDRO-2H-PYRROL-2-ONE AS UMAMI MOLECULE” (priority 2015, published 2018).

The test system of test [1] is sensory panel of 5 to 8 trained persons. The test can be described thus: Sensory panel tasting of umami intensity in water. Particulars: for Intense umami / No umami / Umami: water, count of tasters on 3-point umami scale; for threshold (umami) / threshold (umami), preferably: in water. The class given is in vivo, human. The protocol:
(§1) The sensory tests were performed in a sensory panel room at 20-25° C. The sensory panel consisted of 5 to 8 trained persons. The technical tasting was measured versus a control sample. Tasters were asked to judge the different products according to umami intensity on a 3-point scale (no umami, umami and intense umami). Additionally the tasters were asked to objectively describe the prototype with comments.
The stereoisomers have been tested to umami intensity as described in example 7.

For test [2] the test system is unchanged. The conditions noted are these: comparison value for MSG, no source or test given; cited from earlier work.
The test system of the next test is sensory panel. Description: Sensory panel tasting of tomato soups. The class given is in vivo, human. Particulars: tomato soup. Here is the method: (5R)-(β-D-glucopyranosyloxy)-1,5-dihydro-2H-pyrrol-2-one was added at 500 mg/L (500 ppm) to the soups.
Test [3] has as its system sensory panel of 5 to 8 trained persons. Description: Sensory panel tasting in 0.2% sodium chloride and 0.04% sugar. The class given is in vivo, human. The conditions noted are these: for Intense umami / No umami / Umami: 0.2% sodium chloride and 0.04% sugar, count of tasters. Here is the method:
as §1

The test system is the same in test [4]. The test can be described thus: Sensory panel tasting in 0.2% sodium chloride and 0.04% sugar and 0.08% MSG. The class given is in vivo, human. Particulars: 0.2% sodium chloride, count of tasters. Here is the method: as §1
The test system is the same in test [5]. Description: Sensory panel tasting in 0.2% sodium chloride and 0.04% sugar and 0.015% IMP + GMP. The test is classed as in vivo, human. The conditions noted are these: 0.2% sodium chloride, count of tasters. Here is the method:
as §1

`O=C1C=C[C@@H](O[C@H]2O[C@H](CO)[C@@H](O)[C@H](O)[C@H]2O)N1` [alpha-R, (5R)-(α-D-glucopyranosyloxy)-1,5-dihydro-2H-pyrrol-2-one]: in test [1] (C 200 mg/l), the Intense umami was determined as 0, the No umami worked out at 5 and the Umami is recorded as 0. Also, in test [1] (C 400 mg/l), the Intense umami is listed as 0, the No umami is recorded as 5 and the Umami is reported as 0. In test [1] (C 800 mg/l), this molecule gave an Intense umami of 0, a No umami of 5 and a Umami of 0.
As for `N[C@@H](CCC(=O)O)C(=O)[O-].[Na+]` [Monosodium glutamat], the “threshold (umami)” value in test [2] is 1500 µmol/L.
Consider `O=C1C=C[C@H](O[C@H]2O[C@H](CO)[C@@H](O)[C@H](O)[C@H]2O)N1` [alpha-S, (5S)-(α-D-glucopyranosyloxy)-1,5-dihydro-2H-pyrrol-2-one], for which, in test [1] (C 100 mg/l), the Intense umami is reported as 0, the No umami was 5 and the Umami turned out to be 0. In test [1] (C 250 mg/l), the Intense umami amounted to 0, the No umami is on record as 4 and the Umami was 1. In test [1] (C 500 mg/l), this molecule registered an Intense umami of 0, a No umami of 5 and a Umami of 0.
As for “(5R)-(β-D-glucopyranosyloxy)-1,5-dihydro-2H-pyrrol-2-one”, in the test with sensory panel (500 mg/L (500 ppm)), the “tomato soups with and without the compound, perceived difference” value is “perceived as significantly different”. The “savory, umami taste of tomato soups” value with sensory panel (500 ppm) is listed as “increased significantly”. For the same molecule, the Intense umami in test [3] (C 200 mg/l) is listed as 0; in test [3] (C 500 mg/l), 2; in test [4] (C 200 mg/l) it was 5; in test [4] (C 500 mg/l) it was 3; in test [1] (C 100 mg/l), 0; in test [1] (C 250 mg/l), 1. Further, the Intense umami in test [1] (C 500 mg/l) stood at 1; in test [5] (C 200 mg/l) it was 0; in test [5] (C 500 mg/l) it was 0. Moreover, the No umami in test [3] (C 200 mg/l) was found to be 3; in test [3] (C 500 mg/l), 2; in test [4] (C 200 mg/l), 0; in test [4] (C 500 mg/l), 0; in test [1] (C 100 mg/l) it was 5; in test [1] (C 250 mg/l), 3. Further, the No umami is 1 in test [1] (C 500 mg/l), 4 in test [5] (C 200 mg/l) and 3 in test [5] (C 500 mg/l). In addition, the Umami in test [3] (C 200 mg/l) stood at 4; in test [3] (C 500 mg/l), 3; in test [4] (C 200 mg/l), 1; in test [4] (C 500 mg/l), 3; in test [1] (C 100 mg/l), 3; in test [1] (C 250 mg/l), 4. The Umami in test [1] (C 500 mg/l) is on record as 6; in test [5] (C 200 mg/l), 3; in test [5] (C 500 mg/l), 4. In test [3] (conclusion from Table 2, table 3 and table 4 (salt/sugar base, with MSG, with IMP + GMP)), the umami enhancing property result was “shows the umami enhancing property”. Besides, the “threshold (umami)” value in test [1] (corresponding to 250 mg/l) came out at 957 µmol/L; in test [1] (from Table 1) it was 250 mg/L. The “threshold (umami), preferably” value amounted to 1914 µmol/L in test [1] (corresponding to 500 mg/l) and 500 mg/L in test [1] (from Table 1, 'preferably').
Consider `O=C1C=C[C@H](O[C@@H]2O[C@H](CO)[C@@H](O)[C@H](O)[C@H]2O)N1` [beta-S, (5S)-(β-D-glucopyranosyloxy)-1,5-dihydro-2H-pyrrol-2-one], for which, in test [1] (C 100 mg/l), the Intense umami turned out to be 0, the No umami is listed as 5 and the Umami is 0. In test [1] (C 200 mg/l), this molecule came in with an Intense umami of 0, a No umami of 5 and a Umami of 0. Besides, in test [1] (C 500 mg/l), the Intense umami amounted to 0, the No umami is 4 and the Umami came out at 1.
